Reference: patent US20230226199A1, “DENDRIMER COMPOSITIONS AND METHODS FOR DRUG DELIVERY” (Ashvattha Therapeutics, Inc., priority 2019, published 2023)
pKd: −log10 of the molar value.

Target: JAK1 (Homo sapiens, UniProt P23458)
Assay: JAK1 binding affinity
Description: An exemplary conjugation of JAK1 inhibitor Target-007 to a dendrimer is shown below (Structure XXXIII). JAK1 binding affinity of Target-007 is about […] and the binding affinity of dendrimer conjugated Target-007 is about […].

Chain of JAK1 (P23458 whole entry, species assumed): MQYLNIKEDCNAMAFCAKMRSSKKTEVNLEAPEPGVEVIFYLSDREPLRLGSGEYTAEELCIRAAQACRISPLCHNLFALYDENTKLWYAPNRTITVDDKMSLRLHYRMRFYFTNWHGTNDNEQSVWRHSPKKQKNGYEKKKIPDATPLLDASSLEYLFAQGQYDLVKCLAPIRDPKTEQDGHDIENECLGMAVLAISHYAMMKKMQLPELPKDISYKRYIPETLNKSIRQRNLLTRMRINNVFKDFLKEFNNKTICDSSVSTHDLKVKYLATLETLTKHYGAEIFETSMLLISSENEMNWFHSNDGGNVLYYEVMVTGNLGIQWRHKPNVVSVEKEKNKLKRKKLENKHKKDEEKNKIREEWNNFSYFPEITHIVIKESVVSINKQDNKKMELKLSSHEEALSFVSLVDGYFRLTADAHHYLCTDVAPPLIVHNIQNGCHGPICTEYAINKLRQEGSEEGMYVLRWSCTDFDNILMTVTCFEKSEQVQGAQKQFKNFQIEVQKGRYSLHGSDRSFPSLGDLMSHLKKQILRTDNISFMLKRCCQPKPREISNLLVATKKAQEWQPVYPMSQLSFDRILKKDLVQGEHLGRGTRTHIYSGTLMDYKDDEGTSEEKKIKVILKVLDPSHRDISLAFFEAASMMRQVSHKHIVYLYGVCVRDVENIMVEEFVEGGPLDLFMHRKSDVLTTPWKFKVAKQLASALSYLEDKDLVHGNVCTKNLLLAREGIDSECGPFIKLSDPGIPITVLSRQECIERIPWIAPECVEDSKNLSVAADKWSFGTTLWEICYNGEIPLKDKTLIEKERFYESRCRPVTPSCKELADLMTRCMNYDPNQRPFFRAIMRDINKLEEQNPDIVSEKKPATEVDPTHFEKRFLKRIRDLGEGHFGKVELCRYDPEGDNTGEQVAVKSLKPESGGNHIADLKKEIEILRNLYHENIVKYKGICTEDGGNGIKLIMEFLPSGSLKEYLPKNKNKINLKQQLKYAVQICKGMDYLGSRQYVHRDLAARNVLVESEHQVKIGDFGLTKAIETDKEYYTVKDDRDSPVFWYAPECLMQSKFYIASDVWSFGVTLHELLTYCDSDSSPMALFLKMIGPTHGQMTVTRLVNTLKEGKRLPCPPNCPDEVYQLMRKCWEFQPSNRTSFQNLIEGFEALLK

For COc1cc(-c2nc3c(NCC4CCNCC4)c(Cl)cnc3[nH]2)c(F)cc1OCCOCCOCCOCCN=[N+]=[N-] [Target-007], the pKd was ~9.00.
